# Reference: publication PMC11473416, “Coumarin-chalcone derivatives as dual NLRP1 and NLRP3 inflammasome inhibitors targeting oxidative stress and inflammation in neurotoxin-induced HMC3 and BE(2)-M17 cell models of Parkinson's disease” (Frontiers in Aging Neuroscience, 2024)
# “And” between values parts separate entries of the source, which are not always exact repeats. Equal entries are not always repeated. Where two headings read alike, the source gives them in different places.
# Experiments:
# [1] = set-up: method as in Chiu et al., 2021; conditions: in vivo pharmacokinetic assessment ref Chiu et al., 2021; cited from earlier work
# [2] = set-up: method as in Huang C. C. et al., 2021; conditions: parallel artificial membrane permeability assay ref Huang C. C. et al., 2021; cited from earlier work
# [3] = tested on: NLRP3; experiment: Western blot NLRP3 in MPP^+-stimulated HMC3 cells; assay type: cell-based, human; conditions: HMC3, 4 mM MPP^+ alone; untreated = 100%
# Protocol: (§1) HMC3 (2 × 10^5/6-well) or BE(2)-M17 (4 × 10^5/6-well) cells were lysed in buffer (composition: 50 mM Tris-HCl pH8.0, 2 mM EDTA pH8.0, 150 mM NaCl, 0.5% sodium deoxycholate, 0.1% SDS, 50 mM NaF, 1% NP40) containing the protease and/or phosphatase inhibitor cocktail (Sigma-Aldrich). After sonication, the lysates were centrifuged (12,000 × g for 10 min at 4°C) and protein concentrations determined (Bradford protein assay; Bio-Rad, Hercules, CA, USA). Aliquots of protein (20 μg) were separated by electrophoresis using 10%−12% SDS–polyacrylamide gel followed by transfer to a polyvinylidene fluoride (PVDF) membrane. […] The immune complexes were detected using horseradish peroxidase (HRP)-conjugated goat anti-mouse or goat anti-rabbit IgG antibody (1:5,000; GeneTex) and chemiluminescent HRP substrate (Millipore, Burlington, MA, USA). Immunoreactive bands were captured (ImageQuant™ LAS 4000, GE Healthcare, Chicago, IL, USA) and quantified (Multi Gauge V3.0 software, Fujifilm, Tokyo, Japan).
# [4] = tested on: IL-1β; experiment: Western blot IL-1β in MPP^+-stimulated HMC3 cells; assay type: cell-based, human; conditions: HMC3, 4 mM MPP^+ alone; untreated = 100%
# Protocol: as §1
# [5] = tested on: BE(2)-M17 cells; experiment: cytotoxicity MTT assay in BE(2)-M17 cells; assay type: cell-based, human; conditions: MPP^+ at 0.62 mM
# Protocol: Human HMC3 microglial (CRL-3304) and neuroblastoma BE(2)-M17 (CRL-2267) cells were obtained from American Type Culture Collection. BE(2)-M17 develops a better dopaminergic phenotype than SH-SY5Y when treated with retinoic acid to direct neuronal differentiation (Carvajal-Oliveros et al., [2022]). Cells were routinely maintained in Dulbecco's Modified Eagle Medium-Nutrient Mixture F12 (DMEM-F12) supplemented with 10% fetal bovine serum (FBS; Thermo Fisher Scientific, Waltham, MA, USA) in a 37°C incubator, with 95% relative humidity and 5% CO2 (NuAire, Plymouth, MN, USA).
# To evaluate cytotoxicity of LM compounds and MPP^+, HMC3 (1 × 10^4) or BE(2)-M17 (2 × 10^4) cells were plated on 96-well dishes, grown for 20 h, and treated with LM compounds (1–100 μM) or MPP^+ [HMC3: 0–8 mM; BE(2)-M17: 0–5 mM]. Next day, 20 μl of tetrazolium dye 3-(4,5-dimethylthiazol-2-yl)-2,5-diphenyltetrazolium bromide (MTT, 5 mg/ml; Sigma-Aldrich) was added to the cells at 37°C for 3 h. The resulted insoluble purple formazan products were dissolved by lysis buffer (composition: 10% Triton X-100, 0.1 N HCl, 18% isopropanol). The absorbance of the dissolved product at optical density (OD) 570 nm was read by using a FLx800 fluorescence microplate spectrophotometer (Bio-Tek, Winooski, VT, USA). The half maximal inhibitory concentration (IC50) of LM compounds was determined through the construction of a dose-response curve. MPP^+ at 4 mM (HMC3 cell viability: 65%−69%) or 0.62 mM [BE(2)-M17 cell viability: 79%−84%] was selected to induce inflammation for further experiments.
# [6] = tested on: IL-6; experiment: Western blot IL-6 in MPP^+-stimulated HMC3 cells; assay type: cell-based, human; conditions: HMC3, 4 mM MPP^+ alone; untreated = 100%
# Protocol: as §1
# [7] = tested on: caspase-1; experiment: caspase-1 activity assay in MPP^+-treated BE(2)-M17 cells; assay type: cell-based, human; conditions: BE(2)-M17, 0.62 mM MPP^+ alone; untreated = 100%
# Protocol: (§2) BE(2)-M17 cells were plated onto six-well (4 × 10^5/well) and treated with retinoic acid, LM compounds (10 μM), and MPP^+ as described. Cells were collected on day 7 and lysed by six freeze/thaw cycles. Types of substrates applied were: Ac-Tyr-Val-Ala-Asp-7-amino-4-trifluoromethyl coumarin (YVAD-AFC) for caspase-1, Ac-Val-Glu-Ile-Asp-7-amino-4-trifluoromethyl coumarin (VEID-AFC) for caspase-6 (BioVision, Milpitas, CA, USA), and Ac-Asp-Glu-Val-Asp-7-amido-4-methylcoumarin (DEVD-AMC) for caspase-3 (Sigma-Aldrich). The reaction mixtures were incubated for 1.5 h at 37°C per the manufacturer's instructions. The fluorescence intensity at 400 nm excitation and 505 nm emission (caspase-1 and caspase-6) or 360 nm excitation and 460 nm emission (caspase-3) wavelengths were recorded (BioTek FLx800).
# [8] = tested on: caspase-6; experiment: caspase-6 activity assay in MPP^+-treated BE(2)-M17 cells; assay type: cell-based, human; conditions: BE(2)-M17, 0.62 mM MPP^+ alone; untreated = 100%
# Protocol: as §2
# [9] = tested on: CASP1; experiment: Western blot CASP1 in MPP^+-stimulated HMC3 cells; assay type: cell-based, human; conditions: HMC3, 4 mM MPP^+ alone; untreated = 100%
# Protocol: as §1
# [10] = tested on: MPP^+-activated HMC3 cells; experiment: cell viability (MTT) in MPP^+-activated HMC3 cells; assay type: cell-based; conditions: Homo sapiens; HMC3, compound 10 μM 8 h pre-treatment, then 4 mM MPP^+ 20 h; MPP^+ alone 63%; MPP^+-untreated = 100%
# Protocol: To examine anti-inflammatory potential of LM compounds, HMC3 cells were plated into six-well (2 × 10^5/well) dishes, grown for 20 h, and pre-treated with compounds (10 μM) for 8 h before 4 mM MPP^+ addition for 20 h. The cell viability was evaluated by MTT assay as described, and the release of nitric oxide (NO) in cell culture medium was examined by Griess reagent kit (Thermo Fisher Scientific) based on a classic protocol.
smiles,measurement,setting,value
"CN(C)c1ccc(/C=C/C(=O)c2c(O)c3ccccc3oc2=O)cc1 [LM-021, (E)-3-(3-(4-(dimethylamino)phenyl)acryloyl)-4-hydroxy-2H-chromen-2-one]",bioavailability and BBB penetration potential,[1],good bioavailability and BBB penetration potential
O=C(/C=C/c1ccccc1O)c1c(O)c2ccccc2oc1=O [LM-036],bioavailability and BBB penetration potential,[2],good bioavailability and BBB penetration potential
"C[n+]1ccc(-c2ccccc2)cc1 [MPP^+, 1-methyl-4-phenyl pyridinium, reference compound]",NLRP3 expression,[3],233%
same,IL-1β expression,[4],326%
same,cell viability,[5],79%−84% and 80%
same,IL-6 expression,[6],182%
same,caspase-1 activity,[7],112%
same,caspase-6 activity,[8],116%
same,CASP1 expression,[9],218%
Cc1ccc(/C=C/C(=O)c2c(O)c3ccccc3oc2=O)cc1 [LM-016],viability at 10 µM,[10],81 to 86%
